Results published in the supplement of paper PMC10307832.

Experiments:
Test in all cases: relative viability (nuclei count vs DMSO), 5 days (fraction); higher = more cells survive
[1] = compound: CN1CCN(CC1)C2=CC(=C(C=C2)NC3=NC=C4C(=N3)N(C5=CC=CC=C5C(=O)N4C)C)OC [XMD8-85] + O=C(c1cc(Cc2n[nH]c(=O)c3ccccc23)ccc1F)N1CCN(C(=O)C2CC2)CC1 [Olaparib] (partner 8 µM)
In short: (§1)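 Values are medians from duplicate plates. Each reflects relative viability, defined as the nuclei count of treated wells over that of vehicle wells. Lung cancer cell lines in 1536-well plates were pin-tool dosed one day after seeding with one drug alone or with a fixed anchor-drug dose plus five library-drug doses (not always all listed) in √10 steps, then fixed, stained and imaged at 4× after 5 days.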

[2] = compound: O=C(O)C(Cc1ccccc1[N+](=O)[O-])=NNc1nc(-c2ccc(Cl)c(Cl)c2)cs1 (mixture of isomers) [4EGI-1] + COc1cccc2cc(-c3nc([C@H]4CC[C@H](C(=O)O)CC4)n4ncnc(N)c34)[nH]c12 [OSI-027] (partner 0.5 µM)
In short: as §1

[3] = compound: O=C(O)C(Cc1ccccc1[N+](=O)[O-])=NNc1nc(-c2ccc(Cl)c(Cl)c2)cs1 (mixture of isomers) [4EGI-1] + C[C@@H](Oc1cc(-c2cnn(C3CCNCC3)c2)cnc1N)c1c(Cl)ccc(F)c1Cl [Crizotinib] (partner 1 µM)
In short: as §1

[4] = compound: O=C(O)C(Cc1ccccc1[N+](=O)[O-])=NNc1nc(-c2ccc(Cl)c(Cl)c2)cs1 (mixture of isomers) [4EGI-1] + CC(=O)Nc1cccc(-n2c(=O)n(C3CC3)c(=O)c3c(Nc4ccc(I)cc4F)n(C)c(=O)c(C)c32)c1 [Trametinib] (partner 0.02 µM)
In short: as §1

Row | Cell Line | relative viability ([1]; first compound 0.08 µM) | relative viability ([1]; first compound 0.253 µM) | relative viability ([1]; first compound 0.8 µM) | relative viability ([1]; first compound 2.53 µM) | relative viability ([1]; first compound 8 µM) | relative viability ([2]; first compound 0.5 µM) | relative viability ([2]; first compound 1.581 µM) | relative viability ([2]; first compound 5 µM) | relative viability ([2]; first compound 15.81 µM) | relative viability ([2]; first compound 50 µM) | relative viability ([3]; first compound 0.5 µM) | relative viability ([3]; first compound 1.581 µM) | relative viability ([3]; first compound 5 µM) | relative viability ([3]; first compound 15.81 µM) | relative viability ([3]; first compound 50 µM) | relative viability ([4]; first compound 0.5 µM) | relative viability ([4]; first compound 1.581 µM) | relative viability ([4]; first compound 5 µM) | relative viability ([4]; first compound 15.81 µM) | relative viability ([4]; first compound 50 µM)
1 | BEN | 0.952 | 1.05 | 0.947 | 0.887 | 0.613 | 0.328 | 0.281 | 0.324 | 0.317 | 0.26 | 1.07 | 1.1 | 0.885 | 0.821 | 0.796 | 1.32 | 1.05 | 1.18 | 0.976 | 0.901
2 | SK-MES-1 | 0.819 | 0.683 |  | 0.707 | 0.408 | 0.704 | 0.523 | 0.611 | 0.548 | 0.199 | 1.04 | 0.957 | 1.02 | 0.872 | 0.921 | 0.582 | 0.559 | 0.568 | 0.541 | 0.418
3 | NCI-H1623 |  |  |  |  |  | 0.457 | 0.418 | 0.475 | 0.324 | 0.382 |  |  |  |  |  |  |  |  |  | 
4 | IA-LM | 0.862 | 0.885 | 0.836 | 1.07 | 0.207 |  |  |  |  |  | 0.903 | 0.629 | 0.569 | 0.112 | 0.0835 |  |  |  |  | 
5 | CAL-12T | 0.704 | 0.721 | 0.776 | 0.628 | 0.583 | 0.822 | 0.413 | 0.755 | 0.522 | 0.21 | 0.663 |  | 0.742 | 0.618 | 0.281 | 0.348 |  | 0.358 | 0.281 | 0.191
6 | ABC-1 | 0.919 | 0.864 | 0.781 | 0.764 | 0.795 | 0.642 | 0.357 | 0.455 | 0.313 | 0.218 | 1.23 | 0.7 | 1.09 | 0.472 | 0.259 |  |  |  |  | 
7 | LCLC-97TM1 | 0.433 | 0.285 | 0.359 | 0.477 | 0.201 | 0.464 | 0.258 | 0.527 | 0.482 | 0.478 | 0.445 |  | 0.397 | 0.302 | 0.172 | 0.212 |  | 0.188 | 0.197 | 0.127
8 | PC-14 | 0.253 | 0.213 | 0.229 | 0.237 | 0.14 | 1.21 |  | 1.15 | 0.14 | 0.0614 | 1.08 | 0.617 | 0.875 |  | 0.907 | 1.01 |  | 0.786 | 0.561 | 0.0572
9 | NCI-H23 | 0.313 | 0.308 | 0.302 | 0.282 | 0.254 | 0.612 |  | 0.614 | 0.453 | 0.417 | 0.592 |  | 0.654 | 0.501 | 0.481 | 0.351 |  | 0.422 | 0.369 | 0.187
10 | NCI-H727 | 0.684 | 0.674 | 0.867 | 0.725 | 0.684 | 0.669 | 0.652 | 0.538 | 0.552 | 0.451 | 1.7 | 0.926 | 0.716 | 0.588 | 0.343 | 0.365 | 0.398 | 0.377 | 0.386 | 0.376
